# From patent publication US11952368B2, “FAPI dimer compound, FAPI dimer-based positron emission tomography (PET) imaging agent for tumor diagnosis, and preparation method and use thereof” (XIAMEN UNIVERSITY, priority 2021, dated 2024)
# Target: T1, FAP on CAFs (Homo sapiens, UniProt Q12884)
# T1 construct: FAP-expressing CAFs were inoculated in a 24-well plate; endogenous in cells; host or cells: cancer-associated fibroblasts (CAFs)
# T1 sequence (Q12884 1-760): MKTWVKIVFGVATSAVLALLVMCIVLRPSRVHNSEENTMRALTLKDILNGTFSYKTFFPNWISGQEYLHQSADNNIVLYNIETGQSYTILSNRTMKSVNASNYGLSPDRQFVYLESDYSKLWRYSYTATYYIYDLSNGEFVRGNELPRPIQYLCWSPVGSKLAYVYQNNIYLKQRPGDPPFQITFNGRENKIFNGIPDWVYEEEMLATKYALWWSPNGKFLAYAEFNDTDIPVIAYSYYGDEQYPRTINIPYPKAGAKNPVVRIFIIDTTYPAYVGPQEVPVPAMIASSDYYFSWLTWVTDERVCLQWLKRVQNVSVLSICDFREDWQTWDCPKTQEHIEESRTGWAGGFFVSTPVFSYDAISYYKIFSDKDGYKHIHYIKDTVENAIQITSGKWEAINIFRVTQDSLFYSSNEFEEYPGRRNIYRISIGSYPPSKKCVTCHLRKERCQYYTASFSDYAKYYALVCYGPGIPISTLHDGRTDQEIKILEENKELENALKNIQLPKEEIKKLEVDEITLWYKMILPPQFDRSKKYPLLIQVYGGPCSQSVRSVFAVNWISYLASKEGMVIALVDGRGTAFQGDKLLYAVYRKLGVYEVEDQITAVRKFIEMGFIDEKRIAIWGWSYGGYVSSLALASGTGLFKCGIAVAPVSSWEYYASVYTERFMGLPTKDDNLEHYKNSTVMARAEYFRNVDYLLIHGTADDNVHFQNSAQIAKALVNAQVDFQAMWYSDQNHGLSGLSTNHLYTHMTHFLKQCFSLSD
# Assay: FAP binding assay (radioligand competition) on CAFs
# Experimental: FAP-expressing CAFs were inoculated in a 24-well plate and cultivated with a 10% (volume fraction) FBS-containing 1640 medium for 48 h before the experiment until a cell density was about 80% to 90%; the medium was changed to an FBS-free 1640 medium; and the ^68Ga-2PEG(3)-FAPI-dimer, ^68Ga-FAPI-46, or ^68Ga-2PEG(3)-FAPI-dimer+11.3 nmol FAPI-46 (for the blocking experiment) was added to the 24-well plate and incubated, with predetermined intervals of 10 min, 30 min, 60 min, 90 min, and 120 min. The FAP binding assay was conducted after a radiolabeled compound and a corresponding unlabeled FAPI derivative (1.27×10^−4-10^−13 mol/L of 2PEG(3)-FAPI-dimer was added to ^68Ga-2PEG(3)-FAPI-dimer; and 2.83×10^−4-1×10^−13 mol/L of FAPI-46 was added to ^68Ga-FAPI-46) were co-incubated for 60 min. A half-inhibitory concentration (IC50s) was calculated by using GraphPad Prism to fit data through nonlinear regression. In each step of the experiment, cells were washed twice with 1 mL of PBS. Finally, CAFs were lysed with 0.5 mL of a 1 mol/L NaOH aqueous solution to conduct radioactive counting with a gamma counter. 3 parallel replicates were set for each experiment.
smiles,measurement,value
CN(CCCN1CCN(C(=O)COCCOCCOCCNC(=O)CCC(=O)N[C@@H](CCCCNC(=O)CN2CCN(CC(=O)O)CCN(CC(=O)O)CCN(CC(=O)O)CC2)C(=O)NCCOCCOCCOCC(=O)N2CCN(CCCN(C)c3ccc4nccc(C(=O)NCC(=O)N5CC(F)(F)C[C@H]5C#N)c4c3)CC2)CC1)c1ccc2nccc(C(=O)NCC(=O)N3CC(F)(F)C[C@H]3C#N)c2c1 [2PEG(3)-FAPI-dimer],IC50 value compared with FAPI-46,similar
